Data from patent publication EP0430485A2, “Quinoline compound” (priority 1989, dated 1991).
Where a name gives a salt, the structure may show the parent alone. Read-outs that look alike come from different tables or passages of the source.

Tested on: scopolamine-induced amnesia
Assay type: in vivo, Wistar male rats
Protocol: In order to show effects of the compounds according to the present invention in more detail, a part of experimental examples relating to action against scopolamine-induced amnesia for step-through passive avoidance response in rats is shown below.
Wistar male rats of 7 to 8 weeks old were used to experiment after fasting for 12 hours. Rats were divided into groups with 8 rats per group and 1.5 mg/kg of scopolamine was intraperitoneally administered. After 30 minutes from the administration, rats were placed in a light compartment of a step-through type passive avoidance apparatus constituted by two compartments (25 × 10 × 25 cm of a light compartment and 30 × 30 × 30 cm of a dark compartment having a guillotine door and a floor grid for passing current) and a latent time by entering into a dark compartment was measured. The guillotine door was shut when a rat entered into the dark compartment and shock with 0.6 mA for 3 seconds was applied through the floor grid for acquisition trial. After acquisition trial, 10 mg/kg of each test compound was orally administered to rats and returned to their home cage. After 24 hours, rats were again placed in the light compartment at which the guillotine door was opened, a latent time by entering into the dark compartment was measured whereby presence or absence of improved effect of memory retention was judged.

[1] = rats, scopolamine 1.5 mg/kg intraperitoneally, test compound 10 mg/kg p.o. after acquisition trial, latent time by entering the dark compartment measured after 24 hours, 8 rats per group

## Nc1c2c(nc3cccc(F)c13)N(C(=O)c1ccccc1)CCC2 [Example 26]
[1]
  Latent time of memory retention: 84 s

## CCCCCCCCCCCCN1CCCCc2c1nc1cccc(F)c1c2N [Example 3, 6-amino-1-dodecyl-7-fluoro-2,3,4,5-tetrahydro-1H-azepino[2,3-b]quinoline]
[1]
  Latent time of memory retention: 140 s

## Nc1c2c(nc3ccccc13)NCC2 [Example 22, 4-Amino-2,3-dihydro-1H-pyrrolo[2,3-b]quinoline·hydrobromide]
[1]
  Latent time of memory retention: 78 s

## CC(=O)N1CCCc2c1nc1cccc(F)c1c2N [Example 24, 1-acetyl-5-amino-6-fluoro-1,2,3,4-tetrahydrobenzo[b] [1,8]naphthylidine]
[1]
  Latent time of memory retention: 168 s

## Nc1c2c(nc3ccccc13)N(Cc1ccccc1)CCCC2 [Example 10, 6-Amino-1-benzyl-2,3,4,5-tetrahydro-1H-azepino[2,3-b]-quinoline·hydrochloride]
[1]
  Latent time of memory retention: 188 s

## Nc1c2c(nc3cccc(Cl)c13)NCCC2 [Example 21, 5-amino-6-chloro-1,2,3,4-tetrahydrobenzo[b] [1,8]naphthylidine]
[1]
  Latent time of memory retention: 117 s

## Nc1c2c(nc3cccc(Cl)c13)N(Cc1ccccc1)CCCC2 [Example 11, 6-Amino-1-benzyl-7-chloro-2,3,4,5-tetrahydro-1H-azepino[2,3-b]quinoline·hydrochloride]
[1]
  Latent time of memory retention: 163 s

## Nc1c2c(nc3cccc(F)c13)NCCC2 [Example 20, 5-amino-6-fluoro-1,2,3,4-tetrahydrobenzo[d] [1,8]naphthylidine]
[1]
  Latent time of memory retention: 59 s

## Nc1c2c(nc3ccccc13)CCCC2 [Tacrine, 9-amino-1,2,3,4-tetrahydroacridine, reference compound]
rat, in vivo
  Latent time of memory retention: 58 s

## Nc1c2c(nc3cc(Cl)ccc13)NCCC2 [Example 31, 5-Amino-8-chloro-1,2,3,4-tetrahydrobenzo[b] [1,8]naphthylidine]
[1]
  Latent time of memory retention: 72 s

## 4-Amino-5-fluoro-1-isoamyl-2,3-dihydro-1H-pyrrolo[2,3-b]quinoline·trihydrate [Example 33]
[1]
  Latent time of memory retention: 151 s

## CN1CCc2c1nc1ccccc1c2N [Example 1, 4-amino-1-methyl-2,3-dihydro-1H-pyrrolo[2,3-b] quinoline]
[1]
  Latent time of memory retention: 128 s
